Measured values taken from US20240271138A1, “METHODS AND COMPOSITIONS FOR MODULATING STING SIGNALING AND INNATE IMMUNE RESPONSES” (The Broad Institute, Inc., priority 2021, published 2024).

Columns and labels:
T-cells = settings: cited from earlier work
STING = experiment: Immunoblots of U937 and STING-HA 293T cells treated with VPS34-IN1 and cGAMP; type: cell-based, human; settings: 1 μM VPS34-IN1
From the text: (§1) FIGS. 22A-22F show endosome localization and J domain activity are essential for DNAJC13's function on STING.

DNAJC13 = experiment: Immunofluorescence of DNAJC13 in 293T cells; type: cell-based, human; settings: 1 μm VPS34-IN1, FIG. 22B
From the text: as §1

STING-HA = STING-HA degradation in 293T stably expressing STING-HA, HA intracellular staining; type: cell-based, human; settings: 293T STING-HA; cGAMP 6 hours; pre-treatment with U18666A; FIGS. 11G-11H
From the text: FIGS. 11A-11H show interaction of ESCRT components with STING. FIGS. 11A-11D show immunofluorescence of CD63, HGS, and STING (FIG. 11A); p62, HGS, and STING (FIG. 11B); LC3B, HGS, and STING (FIG. 11C); p62, CD63, and STING (FIG. 11D) in 293T stably expressing STING-HA and non-stimulated, relative to FIGS. 4A-4D. […] Dashed box represents the cropped region enlarged in the right panel for the +cGAMP condition. Scale bar is 10 μm. One representative field of n≥3 independent fields in n=3 independent experiments. […] One representative experiment of n=3 independent experiments with n=2 technical replicates per experiment. […] Each dot represents an individual replicate **** p<0.0001.
Data was analyzed with FlowJo (BD).

[1] = test system: STING LBD fusion proteins (PH-S139, 2XFYVE-S139); experiment: mNG fluorescence and immunoblots of organelle-targeted STING LBD fusion proteins; type: cell-based, human; settings: nigericin stimulation
From the text: Upper, concentrated STING is able to mediate TBK1 for trans-phosphorylation. Lower, diluted STING is unable to mediate TBK1's transphosphorylation.

human STING = human STING (Homo sapiens, UniProt Q86WV6); settings: cited from earlier work
Sequence of human STING (Q86WV6 whole entry H232R): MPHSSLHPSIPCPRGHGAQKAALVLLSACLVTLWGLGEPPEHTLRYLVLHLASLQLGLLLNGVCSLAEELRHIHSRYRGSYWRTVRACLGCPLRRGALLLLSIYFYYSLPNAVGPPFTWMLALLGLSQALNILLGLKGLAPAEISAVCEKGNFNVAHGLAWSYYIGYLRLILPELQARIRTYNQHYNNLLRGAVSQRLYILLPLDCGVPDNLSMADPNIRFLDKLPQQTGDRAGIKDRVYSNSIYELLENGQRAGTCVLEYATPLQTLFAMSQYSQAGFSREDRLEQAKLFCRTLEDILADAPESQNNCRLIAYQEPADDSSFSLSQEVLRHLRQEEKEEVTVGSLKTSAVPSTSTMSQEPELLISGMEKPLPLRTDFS

type 1 IFN expression = settings: cited from earlier work
[2] = sgCTRL cells, cGAMP stimulation, FIGS. 22D-22E

Compound: cyclic GMP-AMP [cGAMP]
- T-cell proliferation and T-cell death (T-cells; exogenous cGAMP): impairs T-cell proliferation and can cause T-cell death

Compound: CC(C)(O)CNc1ncc(-c2ccnc(Nc3ccnc(Cl)c3)n2)c(CC2CC2)n1 [VPS34-IN1]
- STING induced autophagy (STING; STING-HA 293T, digitonin and cGAMP, FIG. 22E): greatly enhanced
- STING degradation (STING; [2]): enhancement of STING degradation
- STING phosphorylation (STING; [2]): strong boost of STING phosphorylation
- DNAJC13 endosomal localization (DNAJC13): clear diffusion of DNAJC13 from the endosome

Compound: CCN(CC)CCO[C@H]1CC[C@@]2(C)C(=CC[C@@H]3[C@@H]2CC[C@]2(C)C(=O)CC[C@@H]32)C1 [U18666A]
- STING degradation (STING-HA MFI) (STING-HA): marked reduction in STING degradation

Compound: CO[C@@H]1C[C@@H](C[C@H]2CC[C@H](C)[C@H]([C@@H](C)C(=O)O)O2)O[C@]2(O[C@](C)([C@H]3CC[C@@](C)([C@@H]4O[C@@H]([C@H]5O[C@@](O)(CO)[C@H](C)C[C@@H]5C)C[C@@H]4C)O3)C[C@H]2C)[C@@H]1C [Nigericin]
- PH-S139 localization ([1]; FIG. 17E): PH-S139 localization change was observed to dispersed vesicles
- STING activation (phosphorylation) of fusion proteins ([1]; FIG. 17F): STING activation was observed in PH-S139 and 2XFYVE-S139 but not with mitochondria localized TomS33-S139 or WT STING

Compound: Cc1ccc2c(=O)c3cccc(CC(=O)O)c3oc2c1C [DMXAA, 6-dimethylxanthenone-4-acetic acid]
- binding to human STING versus murine STING (human STING): substantially weaker binding to human STING in comparison to murine STING
- apoptosis in T-cells (T-cells): elicits stress pathways that induce apoptosis in T-cells
- type 1 IFN expression (type 1 IFN expression): induces type 1 IFN expression
